Data: a melting point compilation (Tetko et al.)

Structure (SMILES)	melting point [°C]
O=C(CCCl)c1ccc(F)cc1	47.5
COC(CCNC1=CC(=O)c2ccccc2C1=O)OC	114
COC1CC2C3(C)CCCC2(COC3)C2C(OC(C)=O)CC3C(C)C(=O)C12C3O (configuration not stated)	165
Cc1ncnc2[nH]cnc12	235 to 240
N#C/C(=C\c1ccccc1O)c1nc2ccccc2s1	188
O=C(O)Cc1n[nH]c(=O)c2ccccc12	220 to 223
COc1ccc(/C=C2\CN(S(=O)(=O)c3ccc(C)cc3)c3ccccc3N2S(=O)(=O)c2ccc(C)cc2)cc1	152
CCOC(=O)c1cn2nc(Cl)ccc2n1	156 to 157
COC(=O)c1ccccc1S(=O)(=O)NC(=O)Nc1nc(C)cc(C)n1	204
OCCc1c(Cl)cccc1Cl	59 to 65
COc1ccc(-c2ccc(S(=O)(=O)Cl)cc2)cc1	103 to 106
O=[N+]([O-])c1cc(-c2ccc(O)cc2)ccc1O	182
O=c1c(=O)c2cc(Cl)c(Cl)cc12	183
CC1=Cc2ccccc2C1	80
C=CC(C)O (configuration not stated)	-100
O=C1CCCC(=O)O1	56.3
O=C(CBr)c1cc(Br)cc2c1OCC2	132 to 134
c1ccc(CSc2nnc(SCc3ccccc3)nn2)cc1	137 to 139
CN1Cc2c(N)cccc2C(c2ccccc2)C1 (configuration not stated)	179
COc1ccc2[nH]c(C)c(CC(=O)O)c2c1	162 to 165
O=P(c1ccccc1)(c1ccccc1)C1C=C(c2ccccc2)C=C(c2ccccc2)O1 (configuration not stated)	151 to 152
CC(C)CCC[C@@H](C)[C@H]1CC[C@H]2C3=CC=C4C[C@@H](O)CC[C@]4(C)[C@H]3CC[C@]12C	150
O=C(CCl)OC(=O)CCl	57.5
NC(=O)c1cccc(Cl)c1Cl	170 to 172
O=C1Cc2cc(Br)ccc2N1	219 to 221
Cc1nc2ccccc2nc1C	105

Structure (SMILES)	melting point [°C]
COc1cc2c(c(OC)c1OC)-c1ccc(O)c(=O)cc1C(NC(C)=O)CC2 (configuration not stated)	178
CC(=O)/C(=N\Nc1ccc([N+](=O)[O-])cc1)C(=O)C(F)(F)F	140
C=CC(=O)OCCOCC	-47
Cc1nnc2n1-c1sc(Br)cc1C(c1ccccc1Cl)=NC2	213
O=C1CC(=O)CC(c2ccc(F)cc2)C1	174 to 178
COC(=O)[C@H]1CC[C@H](C(=O)OC)CC1	67 to 70
N#C/C(=N\Nc1c(Cl)cc(Cl)cc1Cl)c1nc2ccccc2[nH]1	263
Cc1ccc(C(=O)c2noc(-c3ccc([N+](=O)[O-])cc3)c2S(=O)(=O)c2ccccc2)cc1	170
NC(=O)c1ccc(F)c(C(F)(F)F)c1	84.5
NCC(=O)NCC(=O)O	262 to 264
CCC1C(C)=NN=C(c2ccc(OC)c(OC)c2)c2cc(OC)c(OC)cc21 (configuration not stated)	156
CC1CC1C (configuration not stated)	-141
CCN1C(=O)C(=Cc2coc3ccc(Cl)cc3c2=O)SC1=S	231 to 233
CSc1ccccc1C(=O)N(NC(=O)c1ccccc1)C(C)(C)C	196
O=C(Nc1ccccc1)c1cccc2c(Br)cccc12	217
CCOC(=O)C(=CN)C(=O)OCC	63
Brc1ccc2cc[nH]c2c1	92
CCNCC(O)c1cccc(O)c1 (configuration not stated)	148
O=C(/C=C/c1ccc(-c2ccc(Br)cc2)o1)c1ccccc1	141 to 142
Cc1ccccc1-c1ccccc1P(C(C)(C)C)C(C)(C)C	91.5
O=C1NN(c2ccccc2)C(=O)/C1=C/c1ccccc1	275
O=C(Cl)c1cccnc1Sc1ccc(Cl)cc1	100 to 103
O=[N+]([O-])c1ccc(I)c([N+](=O)[O-])c1	89
O=C(Cl)c1cccc(Cl)c1Cl	30
O=c1/c(=C/c2ccc3c(c2)OCO3)sc2n1CCCN=2	151
Cc1ccc(OC2CCC3C4CCC5CC(=O)CCC5(C)C4CCC23C)cc1 (configuration not stated)	148 to 153

Structure (SMILES)	melting point [°C]
NC(=O)COc1ccccc1	102
COc1ccc(C=Nc2n[nH]c(N=Cc3ccc(OC)c(OC)c3)c2Cc2ccc(Cl)cc2)cc1OC	170 to 172
C#CCOc1cc(-n2nc(C(C)(C)C)oc2=O)c(Cl)cc1Cl	131
O=C(O)c1cc(Br)c(C(=O)O)cc1Br	315 to 318
CCOCCN(Cc1ccc(CN(CCOCC)C(=O)C(Cl)Cl)cc1)C(=O)C(Cl)Cl	140
Cn1nc(-c2ccccc2)cc1CN	48 to 49
Nc1ncnc2c1ncn2C1CC(O)C(COP(=O)(O)O)O1 (configuration not stated)	148
S=C(/N=N/c1ccccc1)NNc1ccccc1	168
Cc1ccc(C(C(=O)NC(C)(C)C)N(C)C(=O)CCCc2ccc3ccc4cccc5ccc2c3c45)cc1 (configuration not stated)	141
CC(C)(C)OC(=O)NC1(C(=O)O)CCc2ccccc2C1 (configuration not stated)	185 to 187
CCOc1ccc([C@]2(C(=O)N3CCC[C@H](C)[C@@H]3C)CC2(Cl)Cl)cc1	160
CC(C)c1ncc[nH]1	129
O=c1[nH]oc2ccccc12	139
CC(C)Oc1cc(N)c(Cl)cc1Cl	42
Cc1noc(C)c1C#N	46 to 48
CCc1ccc(O)c(O)c1	39
COc1ccc(C(=O)c2cccc(Cl)c2)cc1[N+](=O)[O-]	109 to 114
Clc1ccc(NC2=NCCN2)cc1	147 to 148
CCc1ccc(C(=O)NN(C(=O)c2cc(C)cc(C)c2)C(C)(C)C)cc1	191
O=C(O)c1cc(=O)[nH]c(=O)[nH]1	345
Nc1ccc(Sc2cc(Cl)ccc2Cl)nc1	108 to 109
CCOC(=O)c1ccccc1O	2 to 3
CSc1ccc(Oc2ccc(C(F)(F)F)cc2[N+](=O)[O-])cc1	41 to 43
CCC(C(=O)NC(N)=O)c1ccccc1 (configuration not stated)	162
CC(=NO)c1cccnc1	103 to 105
FC1=C(F)C(F)(F)C1(F)F	-60

Structure (SMILES)	melting point [°C]
CC1(C)C2CCC1(C)C(/N=C(\C(=O)c1ccccc1)c1ccccc1)C2/N=C(\C(=O)c1ccccc1)c1ccccc1 (configuration not stated)	190
Cc1c(C)c2ccccc2c2ccccc12	144
CC(=O)OCc1ccc(C=O)o1	52 to 56
CN1C(=O)CC[C@H]1c1cccnc1	41
O=C(Oc1c(F)c(F)c(F)c(F)c1F)c1cccnc1	65.5 to 67
COC(=O)c1scc(Br)c1O	80
O=Cc1cccc(Cn2cncn2)c1	54 to 56
O=c1cc(C(F)(F)F)c2ccc(O)cc2o1	179 to 182
CCOC(CCl)OCC	-45
O=C1c2ccccc2-c2ccc(Br)cc21	143 to 149
O=c1[nH]c2ccc(Br)cc2c(=O)o1	285 to 290
Cc1ccc(C=NO)cc1	126
NCC(O)c1ccc(O)c(O)c1 (configuration not stated)	217
C[C@H](C[C@H](I)C(C)(C)C)S(=O)(=O)c1ccccc1	74
CCCCC(=O)c1ccc2c(c1)OCCOCCOc1cc(C(=O)CCCC)ccc1OCCOCCO2	117 to 133
FC(F)(F)c1ccc(P(c2ccc(C(F)(F)F)cc2)c2ccc(C(F)(F)F)cc2)cc1	72 to 75
COc1cccc(CO)c1OC	48 to 51
CCC(CC)Nc1c([N+](=O)[O-])cc(C)c(C)c1[N+](=O)[O-]	58
CCC(O)C(C)(C)C (configuration not stated)	-1.67
Nc1ncnc2c1cnn2CCO	218
FC(F)(Cl)C(Cl)(Cl)Cl	40.6
COC(=O)CC(=O)CCl	14 to 16
CCSC(=O)N(CC)C1CCCCC1	11.5
Cc1ncc(CSSCc2cnc(C)c(O)c2CO)c(CO)c1O	219
Fc1nccc(Br)c1Br	76
Cc1cc(Sc2cc(C)c(O)c(C(C)(C)C)c2)cc(C(C)(C)C)c1O	126

Structure (SMILES)	melting point [°C]
COc1ccc(C(C)=NO)cc1	80
C=C(C)C(CC)CC	-113
O=c1c(Br)c(SCc2ccccc2)cnn1-c1ccccc1	137 to 138
CCN(C#N)CC	-80.6
NC(=O)c1cccnc1Sc1ccc(Cl)cc1	209 to 211
Cn1nc(-c2cccs2)cc1C(=O)Cl	113 to 114
CCOC(=O)C1C(c2ccc(F)cc2)C(C(=O)OCC)C(O)(C(F)(F)F)NC1(O)C(F)(F)F (configuration not stated)	84
Cc1ccccc1NC(=S)c1cc(C(C)(C)C)c(O)c(C(C)(C)C)c1	257 to 258
O=[N+]([O-])c1cccc(-c2nnc3n2NCS3)c1	200
OCc1cccc(-c2cncnc2)c1	65 to 66
CC(=O)NC(C)c1ccccc1 (configuration not stated)	102 to 103
O=C(NN=CC=Cc1ccc([N+](=O)[O-])o1)c1ccc([N+](=O)[O-])s1	236
CC(=O)Oc1ccccc1C(=O)OCC(=O)N(C(C)C)C(C)C	108
O=C(OC(=O)C(F)(F)C(F)(F)C(F)(F)F)C(F)(F)C(F)(F)C(F)(F)F	-43
COc1cccc(OCc2ccccc2Cl)c1C#N	152 to 154
COC(=O)c1ccc(OCc2ccccc2)cc1	98
C/C(CCc1oc2ccc(C)cc2c1-c1ccc(C)o1)=N/O	103 to 104
COC(=O)c1sc(C(C)(C)C)cc1N	94 to 95
O=C=Nc1ccc(F)c([N+](=O)[O-])c1	27 to 28
NNC(=O)C12CC3CC(CC(C3)C1)C2	151 to 153
CCCCCCCCCCCCCCC(=O)OC	18.5
O=C(CCl)c1ccc(Cl)c(Cl)c1	44
O=C(O)c1cc(-c2cccs2)[nH]n1	229 to 232
